The values that follow come from PMC4514850, “A Novel TGR5 Activator WB403 Promotes GLP-1 Secretion and Preserves Pancreatic β-Cells in Type 2 Diabetic Mice” (PLoS ONE, 2015).

One assay relates to ICR mice. Description: GLP-1 secretion in vivo in ICR mice. The following applies: oral 50, 100 mg/kg with DPP-4 inhibitor 5 mg/kg; blood 10 min after 2 g/kg glucose; n = 5. The method, then: Endocrine differentiation was induced by seeding NCI-H716 cells in plates coated with Matrigel (Becton Dickinson). Cells were washed with RPMI-1640 medium without FBS and incubated in the same medium containing indicated compounds at 10 μmol/l. The condition medium was collected after 30 min. GLP-1 secretion in MIN6 or primary enterocytes was conducted similarly. To isolate primary enterocytes, ileum or colon was cut into 2 cm length, rinsed by PBS (pH7.2∼7.4) before dispersed in 10 mmol/l EDTA/PBS (pH7.4) for 15 min at room temperature, followed by pipetting up and down. Enterocytes were collected by filtration through a 70 μm cell strainer. To study the effect of WB403 on GLP-1 secretion in vivo, mice in group of three were fasted overnight and orally received 0, 50, 100 mg/kg of WB403 dispersed in 0.5% CMC with a DPP-4 inhibitor (5 mg/kg). There were 5 animals in each group. 2 g/kg glucose was administrated 30 min later and blood was collected 10 min after glucose challenge.
The GLP-1 (active) ELISA kit was purchased from Millipore, and insulin ELISA kit was from Mercodia. For quantitative determination of cAMP, a competitive enzyme immunoassay kit from R&D system was used. All immunoassays were performed according to manufacturers’ instructions.

Another assay relates to db/db mice. Description: oral glucose tolerance test in db/db mice. The following applies: 2 g/kg glucose, oral 50, 100 mg/kg 30 min before load. It counts as in vivo. The protocol:
Five-week old male ICR mice and db/db (C57BL BKS cg-M+/+ lepr-/-) mice were purchased from Shanghai SLAC Laboratory Animal Co., Ltd. (Shanghai, China). Mice were housed 4–5 per cage and allowed access to normal chow diet and autoclaved water freely. They were fed at a constant room temperature (25°C) with a 12-h light (7:00 AM)/dark (7:00 PM) cycle. All the mice were monitored at least daily, and no adverse events were observed. In general, the db/db mice show a high food intake at 4-week old and become obese and develop type 2 diabetes at 8-week age. Postprandial 2 h blood glucose was assessed and mice with the similar degree of hyperglycemia and body weight were randomized into different groups in order to get a similar average PBG in each group.
Mice were fasted overnight (14 h) before glucose tolerance tests. Normal mice received a 4 g/kg glucose challenge and for diabetic mice it’s 2 g/kg. WB403 at 50, 100 mg/kg, or sitagliptin at 100 mg/kg were administrated orally 30 min prior to glucose load (n = 10). For vehicle group, 0.5% CMC was administrated. Blood glucose levels were measured from tail bleeds with a glucometer (Roche, Accu-Chek Performa) at specified time points. Animals were treated and assessed in the order of the vehicle, WB403 50, 100 mg/kg and sitagliptin 100 mg/kg group.
Fig 2 Effects of WB403 on glucose tolerance during OGTT in normal and diabetic mice. […]

Structures are written as SMILES.

Consider `CCc1cc(-c2nc(C)c(COCc3ccc(Br)cc3)s2)ccn1` [WB403, 4-(5-((4-bromobenzyloxy)-methyl)-4-methylthiazol-2-yl)-2-ethylpyridine], for which, in the assay on ICR mice, the “GLP-1 concentration in serum” value is listed as “significantly increased”. Moreover, the “blood glucose tolerance (OGTT) vs vehicle” value with db/db mice was “The same results”.
